Entries after “also recorded” stand apart in the source; their conditions may differ. Where two headings read alike, the source gives them in different places. Residues, ends and D or L forms follow the SMILES beside them. *: point of attachment. Propanoyl(3-C8F17) = O=C(CCC(F)(F)C(F)(F)C(F)(F)C(F)(F)C(F)(F)C(F)(F)C(F)(F)C(F)(F)F)*
Assays:
[1] = for Ease of solubility, Cycle 1 Vortexing: 10 mg net/ml in 10% (FCP1, 2, 4, 5) or 80% (FCP9, 8) acetic acid; for Ease of solubility, Cycle 1 Sonication / Ease of solubility, Cycle 2 Sonication / Ease of solubility, Cycle 2 Vortexing / Ease of solubility, Cycle 3 Sonication / Ease of solubility, Cycle 3 Vortexing: 10 mg net/ml in 10% or 80% acetic acid; for Visual appearance after dispersion: 10 mg net/ml in AcOH 10% or 80%
[2] = format: physicochemical; conditions: for Further dilution in Mannitol:Water Solubility: FCP 0.167 mM, 1.33% (w/v) mannitol, cloudiness / particulates; for Dispersion in Water Solubility: FCP 1.333 mM in water, vortexed and sonicated, cloudiness (Clear/Cloudy−/Cloudy/Cloudy+) / particulates
Protocol: The solubility of each FCP in water was assessed. Each FCP was dispersed in 300 μl of water to a final concentration of 1.333 mM and vortexed and sonicated. The typical dispersion conditions were four sequences of three minutes bath sonication interspersed by 30 seconds vortexing. After inspection, the resulting solution was diluted with a mannitol solution (a candidate lyophilisation medium, final concentration of peptide 0.167 mM, 1.33% (w/v) mannitol). Solubility was assessed by visual observation of the cloudiness of the resulting dispersion (scaled: Clear/Cloudy−/Cloudy/Cloudy+) and presence of particulates. […]

[3] = format: physicochemical; conditions: for Percentage acetic acid (% v/v): minimum concentration for acceptable dispersibility and solubility: FCP 2 μmol/ml after acetic acid dispersion; for Visual appearance after dispersion: at the listed acetic acid concentration, FCP 2 μmol/ml; for Physical stability of formulation at less than 80% (v/v) acetic acid: gel or soluble particulates formed over time
Protocol: In order to limit the concentration of acetic acid downstream in the formulation process and in the final product, the lowest concentration of acetic acid in water to achieve efficient dispersion and maintain visible solubility was determined for each fluorocarbon-linked peptide. When using mannitol as a cryprotectant, it is important to minimize the acetic acid concentration at the lyophilisation stage in order to achieve a stable and amorphous freeze-dried product. The minimum acetic acid concentration to achieve acceptable dispersibility and solubility of the individual fluorocarbon-linked peptides was determined. The final concentration of fluorocarbon-linked peptide after initial acetic acid dispersion was 2 μmol/ml and after dilution with mannitol, 0.250 μmol/ml.

[4] = format: physicochemical; conditions: 1.33% mannitol, 0.22 μm PVDF filter; for YIELD % of each FCP following sterile filtration, MIX 2: MIX 2 dispersed in water; for YIELD % of each FCP following sterile filtration, MIX 1: MIX 1 dispersed in water

SMILES: CC[C@H](C)[C@H](NC(=O)[C@@H]1CCCN1C(=O)[C@H](C)NC(=O)[C@@H](N)CCCCNC(=O)CCC(F)(F)C(F)(F)C(F)(F)C(F)(F)C(F)(F)C(F)(F)C(F)(F)C(F)(F)F)C(=O)N[C@@H](CCSC)C(=O)N[C@@H](Cc1ccccc1)C(=O)N[C@@H](CO)C(=O)N[C@@H](CC(N)=O)C(=O)N[C@@H](CCCCN)C(=O)N[C@@H](CCSC)C(=O)N[C@@H](C)C(=O)N[C@@H](CCCNC(=N)N)C(=O)N[C@@H](CC(C)C)C(=O)NCC(=O)N[C@@H](CCCCN)C(=O)NCC(=O)N[C@@H](Cc1ccc(O)cc1)C(=O)N[C@@H](CCSC)C(=O)N[C@@H](Cc1ccccc1)C(=O)N[C@@H](CCC(=O)O)C(=O)N[C@@H](CO)C(=O)N[C@@H](CCCCN)C(=O)N[C@@H](CCCNC(=N)N)C(=O)N[C@@H](CCSC)C(=O)N[C@@H](CCCCN)C(=O)N[C@@H](CC(C)C)C(=O)N[C@@H](CCCNC(=N)N)C(=O)N[C@H](C(=O)N[C@@H](CCC(N)=O)C(=O)N[C@H](C(=O)N1CCC[C@H]1C(=O)N[C@@H](C)C(=O)N[C@@H](CCC(=O)O)C(=O)N[C@@H](CCSC)C(=O)N[C@@H](CC(C)C)C(=O)N[C@@H](C)C(N)=O)[C@@H](C)CC)[C@@H](C)O [FCP2]
- Ease of solubility, Cycle 1 Vortexing [1]: Clear
- Ease of solubility, Cycle 1 Sonication [1]: Clear
- Ease of solubility, Cycle 2 Sonication [1]: Clear
- Ease of solubility, Cycle 2 Vortexing [1]: Clear
- Ease of solubility, Cycle 3 Sonication [1]: Clear
- Ease of solubility, Cycle 3 Vortexing [1]: Clear
- Visual appearance after dispersion [1]: Clear
- Further dilution in Mannitol:Water Solubility [2]: fully soluble; also recorded: Clear/No Particulates
- Dispersion in Water Solubility [2]: Cloudy−/No Particulates
- Percentage acetic acid (% v/v): minimum concentration for acceptable dispersibility and solubility [3]: 10 % v/v
- Visual appearance after dispersion [3]: Clear
- YIELD % of each FCP following sterile filtration, MIX 2 [4]: 97.3%

SMILES: CC[C@H](C)[C@H](NC(=O)[C@H](CC(C)C)NC(=O)[C@H](C)NC(=O)[C@H](CO)NC(=O)[C@H](CCCNC(=N)N)NC(=O)[C@H](C)NC(=O)[C@H](CC(C)C)NC(=O)[C@H](Cc1ccccc1)NC(=O)[C@@H](NC(=O)[C@H](CC(C)C)NC(=O)[C@H](CC(=O)O)NC(=O)[C@H](CCC(=O)O)NC(=O)[C@@H](NC(=O)[C@H](CCC(=O)O)NC(=O)[C@H](C)NC(=O)[C@H](CC(N)=O)NC(=O)CNC(=O)[C@@H]1CCCN1C(=O)[C@H](CC(N)=O)NC(=O)[C@H](CCCNC(=N)N)NC(=O)[C@H](CO)NC(=O)[C@H](CCC(=O)O)NC(=O)[C@H](CCCNC(=N)N)NC(=O)[C@@H](NC(=O)[C@H](CCC(N)=O)NC(=O)[C@H](CC(=O)O)NC(=O)[C@@H](N)CCCCNC(=O)CCC(F)(F)C(F)(F)C(F)(F)C(F)(F)C(F)(F)C(F)(F)C(F)(F)C(F)(F)F)C(C)C)[C@@H](C)CC)[C@@H](C)CC)C(=O)N[C@@H](CC(C)C)C(=O)N[C@@H](CCCNC(=N)N)C(=O)NCC(=O)N[C@@H](CO)C(=O)N[C@H](C(=O)N[C@@H](C)C(=O)N[C@@H](Cc1c[nH]cn1)C(=O)N[C@@H](CCCCN)C(=O)N[C@@H](CO)C(N)=O)C(C)C [FCP4]
- Ease of solubility, Cycle 1 Vortexing [1]: Clear
- Ease of solubility, Cycle 1 Sonication [1]: Clear
- Ease of solubility, Cycle 2 Sonication [1]: Clear
- Ease of solubility, Cycle 2 Vortexing [1]: Clear
- Ease of solubility, Cycle 3 Sonication [1]: Clear
- Ease of solubility, Cycle 3 Vortexing [1]: Clear
- Visual appearance after dispersion [1]: Clear
- Further dilution in Mannitol:Water Solubility [2]: fully soluble; also recorded: Clear/No Particulates
- Dispersion in Water Solubility [2]: fully soluble; also recorded: Clear/No Particulates
- Percentage acetic acid (% v/v): minimum concentration for acceptable dispersibility and solubility [3]: 10 % v/v
- Visual appearance after dispersion [3]: Clear
- YIELD % of each FCP following sterile filtration, MIX 1 [4]: 25.1%
- YIELD % of each FCP following sterile filtration, MIX 2 [4]: 82.3%

SMILES: CC[C@H](C)[C@H](NC(=O)[C@H](Cc1ccc(O)cc1)NC(=O)[C@@H](NC(=O)[C@H](CO)NC(=O)[C@H](CO)NC(=O)[C@@H](NC(=O)CNC(=O)CNC(=O)[C@H](C)NC(=O)[C@@H](NC(=O)[C@@H]1CCCN1C(=O)[C@H](CC(C)C)NC(=O)[C@H](Cc1ccccc1)NC(=O)[C@H](CCCNC(=N)N)NC(=O)[C@@H](NC(=O)[C@H](CCCCN)NC(=O)[C@H](CCCNC(=N)N)NC(=O)[C@@H](NC(=O)[C@H](CC(C)C)NC(=O)[C@H](CCC(=O)O)NC(=O)[C@H](CCCNC(=N)N)NC(=O)[C@H](CCC(=O)O)NC(=O)[C@H](CC(C)C)NC(=O)[C@H](CCSC)NC(=O)[C@H](Cc1ccc(O)cc1)NC(=O)[C@H](C)NC(=O)[C@@H](NC(=O)[C@@H](N)CCCCNC(=O)CCC(F)(F)C(F)(F)C(F)(F)C(F)(F)C(F)(F)C(F)(F)C(F)(F)C(F)(F)F)C(C)C)C(C)C)[C@@H](C)O)C(C)C)[C@@H](C)O)C(C)C)C(=O)N[C@@H](CCC(=O)O)C(=O)N[C@H](C(=O)N[C@@H](CC(C)C)C(=O)N[C@@H](Cc1c[nH]cn1)C(=O)N[C@@H](CC(C)C)C(=O)N[C@H](C(=O)N[C@@H](CCC(N)=O)C(=O)NCC(N)=O)[C@@H](C)O)C(C)C [FCP8] (H-K(Propanoyl(3-C8F17))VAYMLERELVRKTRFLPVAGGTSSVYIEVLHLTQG-NH2)
- Ease of solubility, Cycle 1 Vortexing [1]: Particulates+
- Ease of solubility, Cycle 1 Sonication [1]: Some
- Ease of solubility, Cycle 2 Vortexing [1]: Some
- Ease of solubility, Cycle 3 Sonication [1]: Clear
- Visual appearance after dispersion [1]: Clear
- Further dilution in Mannitol:Water Solubility [2]: insoluble; also recorded: Cloudy/Particulates
- Dispersion in Water Solubility [2]: Cloudy/Particulates
- Percentage acetic acid (% v/v): minimum concentration for acceptable dispersibility and solubility [3]: 80 % v/v
- Visual appearance after dispersion [3]: Clear
- Physical stability of formulation at less than 80% (v/v) acetic acid [3]: physically unstable over time
- YIELD % of each FCP following sterile filtration, MIX 2 [4]: 25.3%

SMILES: CC[C@H](C)[C@H](NC(=O)[C@H](CO)NC(=O)[C@H](CC(C)C)NC(=O)[C@@H](NC(=O)[C@H](CC(N)=O)NC(=O)[C@H](CCCNC(=N)N)NC(=O)[C@H](Cc1ccccc1)NC(=O)[C@H](Cc1c[nH]c2ccccc12)NC(=O)[C@H](CCC(=O)O)NC(=O)[C@@H]1CCCN1C(=O)[C@H](CCC(N)=O)NC(=O)[C@H](CC(N)=O)NC(=O)[C@H](CCCNC(=N)N)NC(=O)[C@@H](NC(=O)[C@@H](NC(=O)[C@H](Cc1ccc(O)cc1)NC(=O)[C@@H](N)CCCCNC(=O)CCC(F)(F)C(F)(F)C(F)(F)C(F)(F)C(F)(F)C(F)(F)C(F)(F)C(F)(F)F)[C@@H](C)CC)[C@@H](C)O)C(C)C)C(=O)N[C@@H](C)C(=O)N1CCC[C@H]1C(=O)N[C@H](C(=O)N[C@@H](CCSC)C(=O)N[C@@H](Cc1ccccc1)C(=O)N[C@@H](CO)C(=O)N[C@@H](CC(N)=O)C(=O)N[C@@H](CCCCN)C(=O)N[C@@H](CCSC)C(=O)N[C@@H](C)C(=O)N[C@@H](CCCNC(=N)N)C(=O)N[C@@H](CC(C)C)C(=O)NCC(=O)N[C@@H](CCCCN)C(=O)NCC(=O)N[C@@H](Cc1ccc(O)cc1)C(=O)N[C@@H](CCSC)C(=O)N[C@@H](Cc1ccccc1)C(=O)N[C@@H](CCC(=O)O)C(N)=O)[C@@H](C)CC [FCP9]
- Ease of solubility, Cycle 1 Vortexing [1]: Particulates−
- Ease of solubility, Cycle 1 Sonication [1]: Clear
- Ease of solubility, Cycle 2 Sonication [1]: Clear
- Ease of solubility, Cycle 2 Vortexing [1]: Clear
- Ease of solubility, Cycle 3 Sonication [1]: Clear
- Ease of solubility, Cycle 3 Vortexing [1]: Clear
- Visual appearance after dispersion [1]: Clear
- Further dilution in Mannitol:Water Solubility [2]: partially soluble; also recorded: Clear/Particulates
- Dispersion in Water Solubility [2]: Cloudy−/Particulates
- Percentage acetic acid (% v/v): minimum concentration for acceptable dispersibility and solubility [3]: 80 % v/v
- Visual appearance after dispersion [3]: Clear
- Physical stability of formulation at less than 80% (v/v) acetic acid [3]: physically unstable over time
- YIELD % of each FCP following sterile filtration, MIX 1 [4]: 22.9%

From patent publication US10729759B2, “Fluorocarbon-linked peptide formulation” (priority 2010, dated 2020)
